According to ChEMBL document CHEMBL4393659, “Insights into the chemistry and therapeutic potential of furanones: A versatile pharmacophore” (Eur J Med Chem, 2019):
In brackets after ≈: the same amount, converted by molar mass.

Tests used:
Phospholipase A2 = Phospholipase A2 (Apis mellifera, UniProt P00630); test: Inhibition of bee venom phospholipase A2
Pyricularia oryzae = test: Antifungal activity against Pyricularia oryzae CGMCC 3.3283 assessed as reduction in fungal cell growth incubated for 24 hrs by broth dilution method; format: functional; details: CGMCC 3.3283, 24 h
Fusarium graminearum = test: Antifungal activity against Gibberella zeae CGMCC 3.2873 assessed as reduction in fungal cell growth incubated for 24 hrs by broth dilution method; format: functional; details: CGMCC 3.2873, 24 h
Scedosporium boydii = test: Antifungal activity against Pseudallescheria boydii BMU04772 assessed as reduction in fungal cell growth incubated for 24 hrs by broth dilution method; format: functional; details: BMU04772, 24 h
Fusarium oxysporum [1] = test: Antifungal activity against Fusarium oxysporum CGMCC 3.2830 assessed as reduction in fungal cell growth incubated for 24 hrs by broth dilution method; format: functional; details: CGMCC 3.2830, 24 h
Rattus norvegicus [2] = test: Antiinflammatory activity in rat assessed as inhibition of carrageenan-induced paw edema at 20 mg/kg , po incubated for 30 mins followed by carrageenan treatment further incubated for 3 hrs by plethysmometer relative to ibuprofen; format: functional
Fusarium solani = test: Antifungal activity against Fusarium solani assessed as reduction in fungal spore germination measured between 4 to 24 hrs by inverted microscopy; format: functional; details: read-out: ED50 (the source's name)
Rhizoctonia solani = test: Antifungal activity against Rhizoctonia solani assessed as reduction in fungal germ tube growth measured between 4 to 24 hrs by inverted microscopy; format: functional; details: read-out: ED50 (the source's name)
Fusarium oxysporum [3] = test: Antifungal activity against Fusarium oxysporum assessed as reduction in fungal spore germination measured between 4 to 24 hrs by inverted microscopy; format: functional; details: read-out: ED50 (the source's name)
Globisporangium ultimum = test: Antifungal activity against Pythium ultimum assessed as reduction in fungal spore germination measured between 4 to 24 hrs by inverted microscopy; format: functional; details: read-out: ED50 (the source's name)
Berkeleyomyces basicola = test: Antifungal activity against Thielaviopsis basicola assessed as reduction in fungal spore germination measured between 4 to 24 hrs by inverted microscopy; format: functional; details: read-out: ED50 (the source's name)
MT4 = test: Antiproliferative activity against human MT4 cells assessed as reduction in cell viability; format: functional, cell-based
MOLT-4F = test: Antiproliferative activity against human MOLT4F cells assessed as reduction in cell viability incubated for 72 hrs by coulter counter method; format: functional, cell-based
CCRF-CEM = test: Antiproliferative activity against human CEM cells assessed as reduction in cell viability incubated for 48 hrs by coulter counter method; format: functional, cell-based
L1210 = test: Antiproliferative activity against mouse L1210 cells assessed as reduction in cell viability incubated for 48 hrs by coulter counter method; format: functional, cell-based; details: L1210, 48 h
H5N1 subtype = test: Antiviral activity against H5N1 virus infected in MDCK cells assessed as virus-induced cytopathogenicity infected for 2 hrs followed by virus washout and incubated for 3 days; format: functional, organism-based; details: Influenza A virus
[4] = Cytotoxicity against dog MDCK cells assessed as reduction in cell viability incubated for 24 hrs by MTT assay; format: cell-based, Canis lupus familiaris; details: read-out: LD50
[5] = molecular target: Prostaglandin G/H synthase 2 (Mus musculus, UniProt Q05769); test: Inhibition of mouse COX-2 in LPS-induced mouse peritoneal macrophage assessed as reduction in PGE2 release incubated for 2 hrs by ELISA
Rattus norvegicus [6] = species on record: Rattus norvegicus; test: Antiarthritic activity in adjuvant-induced Sprague-Dawley rat; format: functional
[7] = Ulcerogenicity in Sprague-Dawley rat assessed as gastric lesions at 50 mg/kg , po bid measured after 4 hrs; format: toxicity, organism-based; details: in vivo
Rattus norvegicus [8] = test: Antiinflammatory activity in Sprague-Dawley rat assessed as inhibition of carrageenan-induced paw edema at 3 mg/kg , po incubated for 1 hr followed by carrageenan addition and measured after 4 hrs relative to control; format: functional
Rattus norvegicus [9] = test: Antiinflammatory activity in Sprague-Dawley rat assessed as inhibition of carrageenan-induced paw edema at 3 mg/kg , po relative to control; format: functional
MAC16 [10] = test: Antiproliferative activity against mouse MAC16 cells assessed as reduction in cell viability incubated for 3 days by MTT assay; format: functional, cell-based; details: MAC16, 72 h
MAC16 [11] = test: Antitumor activity in mouse MAC16 cells xenografted in NMRI mouse assessed as reduction in tumor weight administered after 2 days of transplantation and measured after 7 day; format: functional
MAC13 = test: Antiproliferative activity against mouse MAC13 cells assessed as reduction in cell viability incubated for 3 days by MTT assay; format: functional, cell-based; details: MAC13, 72 h
[12] = Ulcerogenicity in Wistar rat assessed as gastric lesions by measuring ulcer severity index at 60 mg/kg , po measured after 17 hrs relative to control; format: toxicity, organism-based; details: in vivo
[13] = molecular target: Glycogen synthase kinase-3 (Homo sapiens, UniProt P49840+P49841); test: Inhibition of GSK3alpha/beta (unknown origin); format: protein assay
[14] = molecular target: Cyclin-dependent kinase 1/cyclin B1 (Homo sapiens, UniProt P06493); test: Inhibition of CDK1/cyclinB (unknown origin); format: protein-complex assay
[15] = molecular target: Cyclin-dependent kinase 5/CDK5 activator 1 (Homo sapiens, UniProt Q00535); test: Inhibition of CDK5/p25 (unknown origin); format: protein-complex assay
A549 [16] = test: Antitumor activity against human A549 cells assessed as inhibition of cell viability at 100 uM by MTT assay; format: functional
A549 [17] = test: Antitumor activity against human A549 cells assessed as inhibition of cell viability at 50 uM by MTT assay; format: functional

Chain of Prostaglandin G/H synthase 2 (Q05769 whole entry): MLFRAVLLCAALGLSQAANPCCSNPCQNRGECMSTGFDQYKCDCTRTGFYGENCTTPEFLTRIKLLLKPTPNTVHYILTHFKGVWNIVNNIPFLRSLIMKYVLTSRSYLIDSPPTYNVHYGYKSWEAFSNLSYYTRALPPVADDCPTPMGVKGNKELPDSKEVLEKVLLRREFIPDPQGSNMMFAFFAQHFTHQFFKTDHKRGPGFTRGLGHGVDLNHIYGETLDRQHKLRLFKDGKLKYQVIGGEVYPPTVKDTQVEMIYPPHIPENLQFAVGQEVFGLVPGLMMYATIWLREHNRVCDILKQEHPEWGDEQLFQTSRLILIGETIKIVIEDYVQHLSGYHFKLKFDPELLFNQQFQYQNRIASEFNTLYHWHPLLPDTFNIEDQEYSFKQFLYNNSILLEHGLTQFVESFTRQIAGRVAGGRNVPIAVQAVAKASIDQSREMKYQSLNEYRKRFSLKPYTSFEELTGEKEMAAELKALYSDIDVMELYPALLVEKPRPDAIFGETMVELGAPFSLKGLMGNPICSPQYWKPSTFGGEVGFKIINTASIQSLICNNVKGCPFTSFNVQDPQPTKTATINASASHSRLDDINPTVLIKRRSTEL
Chain of Phospholipase A2 (P00630 whole entry): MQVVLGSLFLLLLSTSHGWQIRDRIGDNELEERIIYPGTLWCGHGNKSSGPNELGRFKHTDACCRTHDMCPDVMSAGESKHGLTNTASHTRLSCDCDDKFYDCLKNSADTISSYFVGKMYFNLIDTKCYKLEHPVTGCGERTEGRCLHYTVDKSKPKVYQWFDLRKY
Chain of Cyclin-dependent kinase 1/cyclin B1 (P06493 whole entry): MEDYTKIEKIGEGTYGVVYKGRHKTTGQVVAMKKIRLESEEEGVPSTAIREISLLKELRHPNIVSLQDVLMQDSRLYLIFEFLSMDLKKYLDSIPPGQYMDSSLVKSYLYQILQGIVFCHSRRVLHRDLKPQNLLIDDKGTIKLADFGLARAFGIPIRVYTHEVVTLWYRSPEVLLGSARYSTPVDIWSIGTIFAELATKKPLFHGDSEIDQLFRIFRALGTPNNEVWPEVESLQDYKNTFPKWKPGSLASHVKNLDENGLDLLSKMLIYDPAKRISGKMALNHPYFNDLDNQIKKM
Chain of Cyclin-dependent kinase 1/cyclin B1 (P14635 whole entry, further chain): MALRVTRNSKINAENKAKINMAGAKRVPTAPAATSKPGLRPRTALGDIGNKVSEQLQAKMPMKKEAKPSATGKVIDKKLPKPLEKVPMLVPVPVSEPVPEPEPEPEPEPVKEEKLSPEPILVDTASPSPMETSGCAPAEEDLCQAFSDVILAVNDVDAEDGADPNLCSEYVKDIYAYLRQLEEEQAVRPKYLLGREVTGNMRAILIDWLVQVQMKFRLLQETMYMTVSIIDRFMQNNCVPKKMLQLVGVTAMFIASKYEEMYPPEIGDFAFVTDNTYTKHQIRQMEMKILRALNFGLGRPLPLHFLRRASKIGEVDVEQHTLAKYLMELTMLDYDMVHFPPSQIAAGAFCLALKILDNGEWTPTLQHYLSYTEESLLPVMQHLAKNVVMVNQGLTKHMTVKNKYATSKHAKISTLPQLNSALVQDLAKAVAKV
Chain of Cyclin-dependent kinase 5/CDK5 activator 1 (Q00535 whole entry): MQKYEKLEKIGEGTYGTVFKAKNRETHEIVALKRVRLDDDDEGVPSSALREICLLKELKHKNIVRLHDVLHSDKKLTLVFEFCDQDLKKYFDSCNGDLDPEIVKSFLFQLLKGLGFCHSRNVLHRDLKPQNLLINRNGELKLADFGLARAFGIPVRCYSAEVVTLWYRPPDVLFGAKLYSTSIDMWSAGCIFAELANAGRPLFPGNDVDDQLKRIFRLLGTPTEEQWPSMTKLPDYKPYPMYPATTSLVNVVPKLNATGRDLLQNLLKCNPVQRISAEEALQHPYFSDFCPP
Chain of Cyclin-dependent kinase 5/CDK5 activator 1 (Q15078 whole entry, further chain): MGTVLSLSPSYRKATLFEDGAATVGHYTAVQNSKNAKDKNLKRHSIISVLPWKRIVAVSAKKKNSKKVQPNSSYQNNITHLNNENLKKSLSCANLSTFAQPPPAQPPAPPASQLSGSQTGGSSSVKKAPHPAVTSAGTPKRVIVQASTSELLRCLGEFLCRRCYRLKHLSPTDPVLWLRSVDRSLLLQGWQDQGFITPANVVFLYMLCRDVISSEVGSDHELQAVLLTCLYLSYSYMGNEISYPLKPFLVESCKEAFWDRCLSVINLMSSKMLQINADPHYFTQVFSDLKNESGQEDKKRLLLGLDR

Structure (SMILES): O=C1OC(O)C(/C=C/c2ccccc2)=C1F (stereo unspecified)
- IC50 (Phospholipase A2): 3 µM

Structure (SMILES): COC(=O)C[C@]1(O)OC(=O)C(C)=C1C
- MIC (Pyricularia oryzae): 1.25 µg/mL (≈ 6.24 µM)
- MIC (Fusarium graminearum): 2 µg/mL (≈ 9.99 µM)
- MIC (Scedosporium boydii): 0.15 µg/mL (≈ 0.749 µM)
- MIC (Fusarium oxysporum [1]): 2.5 µg/mL (≈ 12.5 µM)

Structure (SMILES): CC(C)Cc1ccc(C2=C/C(=C\c3ccc(Cl)cc3Cl)C(=O)O2)cc1
- inhibition in vivo at 20 mg/kg (Rattus norvegicus [2]): 66.1%

Structure (SMILES): CCCC/C=C\C1=CC(C)OC1=O (stereo unspecified)
- EC50 (Fusarium solani): 54 µg/mL (≈ 300 µM)
- EC50 (Rhizoctonia solani): 61 µg/mL (≈ 338 µM)
- EC50 (Fusarium oxysporum [3]): 56 µg/mL (≈ 311 µM)
- EC50 (Globisporangium ultimum): 45 µg/mL (≈ 250 µM)
- EC50 (Berkeleyomyces basicola): 25 µg/mL (≈ 139 µM)

Structure (SMILES): C/C(=C\c1occ2cc3oc(=O)ccc3cc12)C1=CC(=O)C(C)(C)O1
- IC50 (MT4): 40 to 79 µM
- IC50 (MOLT-4F): 40 to 79 µM
- IC50 (CCRF-CEM): 40 to 79 µM
- IC50 (L1210): 40 to 79 µM

Structure (SMILES): O=C1OC(c2ccccc2)=C/C1=N/Nc1ccc(Br)cc1
- EC50 (H5N1 subtype): < 100 µg/mL
- CC50 at 24 h [4]: < 100 µg/mL

Structure (SMILES): CC1(C)OC(c2ccc(S(C)(=O)=O)cc2)=C(c2cccc(F)c2)C1=O
- IC50 [5]: 0.00832 µM
- ED50 (Rattus norvegicus [6]): 0.008 mg/kg/day
- UI [7]: 1.5
- inhibition in vivo at 3 mg/kg (Rattus norvegicus [8]): 47%
- inhibition in vivo at 3 mg/kg (Rattus norvegicus [9]): 36%

Structure (SMILES): O=C1OC(c2ccccc2)C(Cl)=C1Cl (stereo unspecified)
- IC50 (MAC16 [10]): 50 µM
- inhibition (INH) (MAC16 [11]): 24%
- IC50 (MAC13): 50 µM

Structure (SMILES): CC(C)Cc1ccc(C(C)C(=O)O)cc1 (stereo unspecified) [IBUPROFEN]
- UI [12]: 0.9

Structure (SMILES): COc1ccc(C2OC(=O)C(O)=C2I)cc1OC (stereo unspecified)
- IC50 [13]: 10 µM
- IC50 [14]: 10 µM
- IC50 [15]: 10 µM

Structure (SMILES): CC[C@H](C)[C@H](NC1=C(Br)C(=O)O[C@@H]1OC)C(=O)OC
- inhibition at 100 µM (A549 [16]): 97.2%
- inhibition at 50 µM (A549 [17]): 82.7%
